Measured values: US20250144224A1, “ABL INHIBITORS AND USES THEREOF” (The Regents of the University of California, priority 2021, published 2025)

How the values were obtained:
[1] = system: intracellular BCR-ABL1 in K562 CRISPRi/a cells; experiment: Immunoblots of pharmacodynamic markers of BCR-ABL1 inhibition; type: cell-based, human; settings: nanomolar concentrations (10 nM)
Method: FIGS. 3A-3F. […] Data represent two biological replicates. […] Data represent three biological replicates.
Cells (500,000 cells in 2 mL per well) were seeded into 6-well plates and incubated at 37° C. overnight. Following treatment with compounds at the concentrations and times indicated, cells were placed over ice, transferred to 2 mL microcentrifuge tubes, and pelleted at 500 g, 4° C. The pelleted cells were washed twice with ice-cold phosphate-buffered saline (PBS) and stored at −80° C. […] Proteins were separated by polyacrylamide gel electrophoresis (PAGE), transferred to 0.2 μm pore size nitrocellulose membranes (Bio-Rad) and blocked using blocking buffer [5% bovine serum albumin (Millipore) in Tris-buffered saline, 0.1% Tween 20 (TBST) supplemented with 0.02% NaN3]. Membranes were probed with primary antibodies against FKBP12 (ab58072) from Abcam and p-ABL1^Y245 (2861), p-CRKL^Y207 (3181), IFITM1 (13126), IFITM2 (13530), IFITM3 (59212), p-STAT5^Y694 (4322), and Tubulin (3873) from Cell Signaling Technology diluted (1:1000) in blocking buffer. After primary antibody incubation, membranes were treated with IRDye secondary antibodies (LI-COR Biosciences) according to manufacturer's recommendations and scanned on an Odyssey Imaging System (LI-COR Biosciences). Immunoblot scans were processed using ImageStudioLite 5.2.5 (LI-COR).

[2] = system: kinases labeled by XO44 in K562 CRISPRi cells; experiment: Live cell kinase occupancy profiling with XO44 probe; settings: 100 nM, 4 h pretreatment, then XO44, live K562 CRISPRi cells
[3] = Parallel artificial membrane permeability assay (PAMPA); type: in vitro ADME; settings: 100 μM in PBS, 5 h, LC-MS
Method: PAMPA was performed by Quintara Discovery using the BioCoat Pre-coated PAMPA Plate System (Corning) as described previously (15) and based on manufacturer's recommendations. All compounds were assessed at 100 μM in PBS. Compound concentrations in donor and acceptor compartments were quantified using liquid chromatography-mass spectrometry (LC-MS) 5 h following compound addition into the donor compartment.

[4] = system: K562 CRISPRi or CRISPRa cells with IFITM1-3 expression modulation; experiment: Chemical-genetic interaction mapping (IC50 shift in cell viability assay); type: cell-based, human; settings: IFITM1-3 knockdown (CRISPRi) or overexpression (CRISPRa), 72 h
Method: Cell viability was assessed by CellTiter-Glo (CTG) Luminescent Cell Viability Assay (Promega). Cells were equilibrated to room temperature before the addition of diluted (1:4 CTG reagent:PBS) CTG reagent (100 μL per well). Plates were agitated on an orbital shaker and luminescence signal was measured on a SpectraMax M5 (Molecular Devices) or Spark (Tecan) plate reader. Repeated measurements of luminescence were performed as technical replicates to determine incubation times optimal for signal-to-noise. Luminescence measurements were normalized to DMSO-treated values to determine relative cell viability.
Cells treated with compounds were evaluated for viability as described herein. […] The same top concentrations were used in K562 CRISPRa cells with the exception of HJB97 (1 μM), JQ1 (1 μM), MZ1 (1 μM), and dBET6 (100 nM). Using Prism 9 (GraphPad Software), a 4-parameter nonlinear regression model was fit to the viability data to determine IC50 values. IC50 values of sgRNA+ cells were normalized to that of non-sgRNA expressing cells to determine sensitivity/resistance chemical-genetic interactions mapped in FIG. 4B.

[5] = system: K562 cells (wild-type); experiment: CellTiter-Glo cell viability, K562 wild-type; settings: Homo sapiens, K562, 72 h, read-out: EC50 (nM) CTG K562 wt
Method: (§1) Compounds were tested for ability to inhibit cell growth. K562 cells (wild-type or CRISPR base-edited Bcr-Abl T315I) were plated at 1000 cells/well in 96-well plates and treated with the indicated compounds at the indicated concentrations for three days in triplicate, then tested for cell viability by the CellTiter-Glo 2.0 assay (Promega).
(§2) Compounds were tested for ability to inhibit cell growth. K562 cells (wild-type or CRISPR base-edited Bcr-Abl T315I) were plated at 1000 cells/well in 96-well plates and treated with the indicated compounds at the indicated concentrations for three days in triplicate, then tested for cell viability by the CellTiter-Glo 2.0 assay (Promega). […] Compounds were tested for ability to inhibit cell growth. K562 cells (wild-type or CRISPR base-edited Bcr-Abl T315I) were plated at 1000 cells/well in 96-well plates and treated with the indicated compounds at the indicated concentrations for three days in triplicate, then tested for cell viability by the CellTiter-Glo 2.0 assay (Promega).
(§3) Cells were treated with the indicated concentrations of compound in 9-point 3-fold dilution series (100 μL final volume per well) and incubated at 37° C. for 72 h. Cell viability was assessed by CellTiter-Glo (CTG) Luminescent Cell Viability Assay (Promega). Cells were equilibrated to room temperature before the addition of diluted (1:4 CTG reagent:PBS) CTG reagent (100 μL per well). Plates were agitated on an orbital shaker and luminescence signal was measured on a SpectraMax M5 (Molecular Devices) or Spark (Tecan) plate reader. Repeated measurements of luminescence were performed as technical replicates to determine incubation times optimal for signal-to-noise. Luminescence measurements were normalized to DMSO-treated values to determine relative cell viability.

[6] = system: K562 cells (CRISPR base-edited Bcr-Abl T315I); experiment: CellTiter-Glo cell viability, K562 Bcr-Abl T315I; settings: Homo sapiens, K562, 72 h, read-out: EC50 (nM) CTG K562 T315I
Method: as §1, §2, §3

[7] = target: T1, ABL1 kinase domain (Homo sapiens, UniProt P00519); experiment: ATP-site kinase pulldown (KdELECT competition binding); settings: 100-fold molar excess asciminib
T1 sequence (P00519 242-493 limits assumed): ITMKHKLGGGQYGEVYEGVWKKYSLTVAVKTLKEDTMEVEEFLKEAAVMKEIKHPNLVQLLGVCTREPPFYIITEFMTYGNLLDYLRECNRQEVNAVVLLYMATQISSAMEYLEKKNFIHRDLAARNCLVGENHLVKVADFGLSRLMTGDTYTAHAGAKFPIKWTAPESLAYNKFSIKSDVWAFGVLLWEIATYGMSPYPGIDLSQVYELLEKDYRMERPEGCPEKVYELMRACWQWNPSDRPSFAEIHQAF
Method: ATP-site competition binding assay (KdELECT) was performed by Eurofins DiscoverX as described previously (11). Compounds were assessed in 11-point 3-fold dilution series and compound mixtures were analogously diluted from a DMSO stock containing the 2 compounds at the ratio indicated. Pulldown measurements of DNA-tagged kinase by quantitative polymerase chain reaction (qPCR) were normalized to DMSO-treated values to determine relative ATP-site pulldown. A 4-parameter nonlinear regression model was fit to the data using Prism 9 (GraphPad Software) with the top parameter constrained to 100%.

Structure (SMILES): Cc1nc(Nc2ncc(C(=O)Nc3c(C)cccc3Cl)s2)cc(N2CCN(C(=O)CCOCCOCCOCCOCCOCCOCCOCCOCCOCCOCCOCCOCCNC(=O)C3CCN(c4ncc(C(=O)Nc5ccc(OC(F)(F)Cl)cc5)cc4-c4ccn[nH]4)CC3)CC2)n1 [DasatiLink-1]
- time required for maximal inhibition of target [1]: multiple hours
- intracellular kinase occupancy (kinome-wide selectivity) [2]: observable intracellular occupancy of only a single kinase
- artificial membrane permeability by PAMPA [3]: impermeable
- IFITM dependency of potency (IC50 shift in cell viability assay) [4]: validated the IFITM dependency
- EC50 [5]: 2.47 nM
- EC50 [6]: > 300 nM
- effect of excess asciminib on ability to occupy the ATP-site [7]: impaired the ability of DasatiLink-1 to occupy the ATP-site
